Experimental data published in patent US9714232B2, “Substituted piperazine compounds and methods of use thereof” (Sunshine Lake Pharma Co., Ltd., priority 2013, dated 2017).
pIC50, pKi: −log10 of the molar value.

Experiments:
human 5-HT1A receptor = human 5-HT1A receptor (Homo sapiens (Human), UniProt P08908); test: Affinity for human 5-HT1A receptor ([3H]8-OH-DPAT binding, HEK-293 cell homogenates); settings: 0.3 nM [3H]8-OH-DPAT, human HEK-293 cell homogenates, 22° C., 60 minutes; Ki from IC50 by ChengPrusoff equation
human 5-HT1A receptor, sequence (P08908 whole entry): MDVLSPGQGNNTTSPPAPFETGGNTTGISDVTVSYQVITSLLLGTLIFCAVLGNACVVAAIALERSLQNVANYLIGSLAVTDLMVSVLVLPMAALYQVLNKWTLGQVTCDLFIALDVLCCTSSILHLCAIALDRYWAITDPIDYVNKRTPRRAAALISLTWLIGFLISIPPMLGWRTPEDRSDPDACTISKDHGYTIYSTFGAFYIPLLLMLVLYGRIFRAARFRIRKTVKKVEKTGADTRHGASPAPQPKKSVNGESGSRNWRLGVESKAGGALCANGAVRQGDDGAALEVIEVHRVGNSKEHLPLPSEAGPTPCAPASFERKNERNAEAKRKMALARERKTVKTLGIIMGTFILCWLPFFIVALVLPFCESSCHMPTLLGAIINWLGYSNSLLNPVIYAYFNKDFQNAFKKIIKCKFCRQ
Experimental: Human HEK-293 cell homogenates (36 μg protein) were incubated at 22° C. for 60 minutes with 0.3 nM [^3H]8-0H-DPAT (Perkin-Elmer) in the absence or presence of the test compound in a buffer solution containing 50 mM Tris-HCl (pH 7.4), 10 mM MgSO4, 0.5 mM EDTA and 2 μg/ml aprotinine.
The non-specific binding value was determined by incubating the same mixture in the presence of 10 μM 8-OH-DPAT, which was used as the standard reference compound and tested in each experiment at several concentrations to obtain a competition curve.
Following the incubation, the samples were filtered rapidly under vacuum through glass fiber filter (GF/B, Packard) presoaked with 0.3% PEI and rinsed several times with ice-cold 50 mM Tris-HCl using a 96-sample cell harvester (Unifilter, Packard). The filters were dried and the retained radioactivity was measured in a scintillation counter (Topcount, Packard) using a scintillation cocktail (Microscint 0, Packard). The experimental results were expressed as a percent inhibition of the control radioligand specific binding.
Binding assay of [^3H] 8-OH-DPAT (0.3 nM) with 5-HT1A receptor in human HEK-293 cell was tested by scintillation proximity assay of membrane.

[1] = target: serotonin transporter in rat synaptosome (Rattus norvegicus (Rat), UniProt P31652); test: Inhibitory effect on [3H]5-HT uptake in rat synaptosome; type: biochemical; settings: rat brain synaptosomes, 0.1 μCi [3H]5-HT, 37° C., 15 minutes
serotonin transporter in rat synaptosome, sequence (P31652 whole entry): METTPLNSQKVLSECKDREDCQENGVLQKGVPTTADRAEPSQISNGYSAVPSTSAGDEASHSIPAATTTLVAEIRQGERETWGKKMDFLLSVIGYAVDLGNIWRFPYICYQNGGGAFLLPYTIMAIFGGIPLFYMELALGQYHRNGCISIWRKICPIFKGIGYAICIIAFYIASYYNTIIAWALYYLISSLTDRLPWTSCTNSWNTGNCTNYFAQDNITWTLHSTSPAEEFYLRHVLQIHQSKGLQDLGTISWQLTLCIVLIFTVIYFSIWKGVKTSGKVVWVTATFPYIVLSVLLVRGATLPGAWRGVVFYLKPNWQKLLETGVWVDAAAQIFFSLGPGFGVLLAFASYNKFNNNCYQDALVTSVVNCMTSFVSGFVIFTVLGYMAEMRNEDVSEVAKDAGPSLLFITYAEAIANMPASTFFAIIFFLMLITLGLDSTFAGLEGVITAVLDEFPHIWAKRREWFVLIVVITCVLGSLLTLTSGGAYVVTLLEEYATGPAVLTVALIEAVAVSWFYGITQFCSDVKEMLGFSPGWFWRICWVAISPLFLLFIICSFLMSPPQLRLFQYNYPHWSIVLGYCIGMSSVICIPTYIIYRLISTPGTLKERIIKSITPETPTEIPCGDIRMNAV
Experimental: The synaptosomes (150 μg) prepared from a rat brain were incubated at 37° C. for 15 minutes with 0.1 μCi [^3H]5-HT in the absence or presence of the test compound or the reference compound in a buffer solution containing 106.2 mM NaCl, 4.5 mM KCl, 2.25 mM MgSO4, 1.08 mM NaH2PO4, 22.5 mM NaHCO3, 9.9 mM glucose, 9 μM EGTA and 45 μM ascorbic acid (pH 7.4).
The basal control activity was determined by incubating the same mixture at 4° C. for 15 minutes in the presence of 10 μM imipramine to block the uptake of 5-HT, which was taken as the standard reference compound and tested in each experiment at several concentrations to obtain an inhibition curve.
Following the incubation, the samples were filtered rapidly under vacuum through glass fiber filters (GF/B, Packard) and rinsed twice with an ice-cold incubation buffer using a 96-sample cell harvester (Unifilter, Packard) to eliminate free [^3H]5-HT. The filters were dried and the retained radioactivity was measured in a scintillation counter (Topcount, Packard) using a scintillation cocktail (Microscint 0, Packard). The experimental results were expressed as a percent inhibition of the control uptake of [^3H]5-HT.
Inhibition of serotonin transporter in rat synaptosome was measured by the concentrations of [^3H]5-HT.

Row | Structure (SMILES) | pKi (human 5-HT1A receptor) | pIC50 [1]
1 | N#Cc1ccc2[nH]cc(CCCCN3CCN(c4ccc(N5CCCCC5=O)cc4)CC3)c2c1 [Example 2, 3-(4-(4-(4-(2-oxopiperidin-1-yl)phenyl)piperazin-1-yl)butyl)-1H-indole-5-carbonitrile] | 8.72 | 8.74
2 | N#Cc1ccc2[nH]cc(CCCN3CCN(c4ccc(N5CCCCC5=O)cc4)CC3)c2c1 [Example 4, 3-(3-(4-(4-(2-oxopiperidin-1-yl)phenyl)piperazin-1-yl)propyl)-1H-indole-5-carbonitrile] | 8.92 | 8.07
3 | N#Cc1ccc2[nH]cc(CCCCN3CCN(c4ccc(N5CCOCC5=O)cc4)CC3)c2c1 [Example 6, 3-(4-(4-(4-(3-oxomorpholino)phenyl)piperazin-1-yl)butyl)-1H-indole-5-carbonitrile] | 8.68 | 8.66
4 | N#Cc1ccc2[nH]cc(CCCN3CCN(c4ccc(-n5ccccc5=O)cc4)CC3)c2c1 [Example 11, 3-(3-(4-(4-(2-oxopyridin-1(2H)-yl)phenyl)piperazin-1-yl)propyl)-1H-indole-5-carbonitrile] | 8.92 | 9.01
5 | O=c1ccccn1-c1ccc(N2CCN(CCCc3c[nH]c4ccc(F)cc34)CC2)cc1 [Example 12, 1-(4-(4-(3-(5-fluoro-1H-indol-3-yl)propyl)piperazin-1-yl)phenyl)pyridin-2(1H)-one] | 9.06 | 8.15
6 | N#Cc1ccc2[nH]cc(CCN3CCN(c4ccc(-n5ccccc5=O)cc4)CC3)c2c1 [Example 13, 3-(2-(4-(4-(2-oxopyridin-1(2H)-yl)phenyl)piperazin-1-yl)ethyl)-1H-indole-5-carbonitrile] | 7.27 | 8.59
7 | N#Cc1ccc2[nH]cc(CCCCCN3CCN(c4ccc(-n5ccccc5=O)cc4)CC3)c2c1 [Example 14, 3-(5-(4-(4-(2-oxopyridin-1(2H)-yl)phenyl)piperazin-1-yl)pentyl)-1H-indole-5-carbonitrile] | 8.39 | 8.85
8 | N#Cc1ccc2[nH]cc(C(O)CCCN3CCN(c4ccc(-n5ccccc5=O)cc4)CC3)c2c1 (stereo not shown) [Example 15, 3-(1-hydroxy-4-(4-(4-(2-oxopyridin-1(2H)-yl)phenyl)piperazin-1-yl)butyl)-1H-indole-5-carbonitrile] | – | 6.48
9 | N#Cc1ccc2[nH]cc(C(O)CCN3CCN(c4ccc(-n5ccccc5=O)cc4)CC3)c2c1 (stereo not shown) [Example 16, 3-(1-hydroxy-3-(4-(4-(2-oxopyridin-1(2H)-yl)phenyl)piperazin-1-yl)propyl)-1H-indole-5-carbonitrile] | – | 6.77
10 | Cc1ccn(-c2ccc(N3CCN(CCCCc4c[nH]c5ccc(C#N)cc45)CC3)cc2)c(=O)c1 [Example 17, 3-(4-(4-(4-(4-methyl-2-oxopyridin-1(2H)-yl)phenyl)piperazin-1-yl)butyl)-1H-indole-5-carbonitrile] | 9.32 | 8.77
11 | COc1ccn(-c2ccc(N3CCN(CCc4c[nH]c5ccc(C#N)cc45)CC3)cc2)c(=O)c1 [Example 23, 3-(2-(4-(4-(4-methoxy-2-oxopyridin-1(2H)-yl)phenyl)piperazin-1-yl)ethyl)-1H-indole-5-carbonitrile] | – | 7.92
12 | N#Cc1ccc2[nH]cc(CCCN3CCN(c4ccc(-n5cc(F)cc(F)c5=O)cc4)CC3)c2c1 [Example 26, 3-(3-(4-(4-(3,5-difluoro-2-oxopyridin-1(2H)-yl)phenyl)piperazin-1-yl)propyl)-1H-indole-5-carbonitrile] | 9.51 | 8.89

Results, then the compound that gave them:

Row | pKi (human 5-HT1A receptor) | pIC50 [1] | Structure (SMILES)
13 | 8.60 | 8.37 | O=C1CCCCN1c1ccc(N2CCN(CCCCc3c[nH]c4ccc(F)cc34)CC2)cc1 [Example 1, 1-(4-(4-(4-(5-fluoro-1H-indol-3-yl)butyl)piperazin-1-yl)phenyl)piperidin-2-one]
14 | 8.49 | 8.38 | O=C1CCCCN1c1ccc(N2CCN(CCCc3c[nH]c4ccc(F)cc34)CC2)cc1 [Example 3, 1-(4-(4-(3-(5-fluoro-1H-indol-3-yl)propyl)piperazin-1-yl)phenyl)piperidin-2-one]
15 | 8.51 | 8.20 | O=C1COCCN1c1ccc(N2CCN(CCCCc3c[nH]c4ccc(F)cc34)CC2)cc1 [Example 5, 4-(4-(4-(4-(5-fluoro-1H-indol-3-yl)butyl)piperazin-1-yl)phenyl)morpholin-3-one]
16 | 8.19 | 8.14 | O=C1COCCN1c1ccc(N2CCN(CCCc3c[nH]c4ccc(F)cc34)CC2)cc1 [Example 7, 4-(4-(4-(3-(5-fluoro-1H-indol-3-yl)propyl)piperazin-1-yl)phenyl)morpholin-3-one]
17 | 8.49 | 8.00 | N#Cc1ccc2[nH]cc(CCCN3CCN(c4ccc(N5CCOCC5=O)cc4)CC3)c2c1 [Example 8, 3-(3-(4-(4-(3-oxomorpholino)phenyl)piperazin-1-yl)propyl)-1H-indole-5-carbonitrile]
18 | 9.64 | 8.10 | N#Cc1ccc2[nH]cc(CCCCN3CCN(c4ccc(-n5ccccc5=O)cc4)CC3)c2c1 [Example 9, 3-(4-(4-(4-(2-oxopyridin-1(2H)-yl)phenyl)piperazin-1-yl)butyl)-1H-indole-5-carbonitrile]
19 | 9.72 | 8.80 | O=c1ccccn1-c1ccc(N2CCN(CCCCc3c[nH]c4ccc(F)cc34)CC2)cc1 [Example 10, 1-(4-(4-(4-(5-fluoro-1H-indol-3-yl)butyl)piperazin-1-yl)phenyl)pyridin-2(1H)-one]
20 | 9.05 | 8.12 | Cc1ccn(-c2ccc(N3CCN(CCCc4c[nH]c5ccc(C#N)cc45)CC3)cc2)c(=O)c1 [Example 18, 3-(3-(4-(4-(4-methyl-2-oxopyridin-1(2H)-yl)phenyl)piperazin-1-yl)propyl)-1H-indole-5-carbonitrile]
21 | 7.48 | 8.70 | Cc1ccn(-c2ccc(N3CCN(CCc4c[nH]c5ccc(C#N)cc45)CC3)cc2)c(=O)c1 [Example 19, 3-(2-(4-(4-(4-methyl-2-oxopyridin-1(2H)-yl)phenyl)piperazin-1-yl)ethyl)-1H-indole-5-carbonitrile]
22 | 8.33 | 8.44 | Cc1ccn(-c2ccc(N3CCN(CCCCCc4c[nH]c5ccc(C#N)cc45)CC3)cc2)c(=O)c1 [Example 20, 3-(5-(4-(4-(4-methyl-2-oxopyridin-1(2H)-yl)phenyl)piperazin-1-yl)pentyl)-1H-indole-5-carbonitrile]
23 | 8.92 | 8.13 | COc1ccn(-c2ccc(N3CCN(CCCCc4c[nH]c5ccc(C#N)cc45)CC3)cc2)c(=O)c1 [Example 21, 3-(4-(4-(4-(4-methoxy-2-oxopyridin-1(2H)-yl)phenyl)piperazin-1-yl)butyl)-1H-indole-5-carbonitrile]
24 | 9.21 | 8.74 | COc1ccn(-c2ccc(N3CCN(CCCc4c[nH]c5ccc(C#N)cc45)CC3)cc2)c(=O)c1 [Example 22, 3-(3-(4-(4-(4-methoxy-2-oxopyridin-1(2H)-yl)phenyl)piperazin-1-yl)propyl)-1H-indole-5-carbonitrile]
25 | 7.92 | 8.26 | COc1ccn(-c2ccc(N3CCN(CCCCCc4c[nH]c5ccc(C#N)cc45)CC3)cc2)c(=O)c1 [Example 24, 3-(5-(4-(4-(4-methoxy-2-oxopyridin-1(2H)-yl)phenyl)piperazin-1-yl)pentyl)-1H-indole-5-carbonitrile]
26 | 9.74 | 8.85 | N#Cc1ccc2[nH]cc(CCCCN3CCN(c4ccc(-n5cc(F)cc(F)c5=O)cc4)CC3)c2c1 [Example 25, 3-(4-(4-(4-(3,5-difluoro-2-oxopyridin-1(2H)-yl)phenyl)piperazin-1-yl)butyl)-1H-indole-5-carbonitrile]
27 | 7.17 | 8.26 | N#Cc1ccc2[nH]cc(CCN3CCN(c4ccc(-n5cc(F)cc(F)c5=O)cc4)CC3)c2c1 [Example 27, 3-(2-(4-(4-(3,5-difluoro-2-oxopyridin-1(2H)-yl)phenyl)piperazin-1-yl)ethyl)-1H-indole-5-carbonitrile]
28 | – | 8.00 | N#Cc1ccc2[nH]cc(CCCCN3CCN(c4ccc(-n5ccc6ccccc6c5=O)cc4)CC3)c2c1 [Example 29, 3-(4-(4-(4-(1-oxoisoquinolin-2(1H)-yl)phenyl)piperazin-1-yl)butyl)-1H-indole-5-carbonitrile]
